Laboratory results: article PMC6366404, “4-(3-Nitrophenyl)thiazol-2-ylhydrazone derivatives as antioxidants and selective hMAO-B inhibitors: synthesis, biological activity and computational analysis” (Journal of Enzyme Inhibition and Medicinal Chemistry, 2019)

Experiments:
[1] = DPPH radical scavenging activity
[2] = ABTS radical cation scavenging activity
[3] = FRAP (ferric reducing antioxidant power) assay
[4] = biological target: T1, hMAO-B (Homo sapiens, UniProt P27338); assay: Reversibility of MAO-B inhibition by dialysis; assay type: biochemical
T1 sequence (P27338 1-520): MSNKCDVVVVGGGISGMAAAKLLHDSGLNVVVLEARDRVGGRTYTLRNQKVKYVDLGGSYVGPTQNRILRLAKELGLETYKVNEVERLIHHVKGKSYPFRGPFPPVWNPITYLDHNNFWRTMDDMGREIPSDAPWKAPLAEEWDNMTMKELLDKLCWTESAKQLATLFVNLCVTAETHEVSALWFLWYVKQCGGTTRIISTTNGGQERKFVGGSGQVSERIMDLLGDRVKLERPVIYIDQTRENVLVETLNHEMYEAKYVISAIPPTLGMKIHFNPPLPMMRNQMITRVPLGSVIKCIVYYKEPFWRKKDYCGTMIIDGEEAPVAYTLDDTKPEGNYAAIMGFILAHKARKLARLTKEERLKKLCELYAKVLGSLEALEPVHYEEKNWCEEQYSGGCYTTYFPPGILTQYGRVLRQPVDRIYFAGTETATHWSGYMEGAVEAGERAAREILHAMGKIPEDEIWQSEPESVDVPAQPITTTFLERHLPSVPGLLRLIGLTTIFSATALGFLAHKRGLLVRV
Protocol: Stock solutions of the test compounds were prepared in DMSO and added to the incubations to yield 4% DMSO. The samples were dialyzed for 24 h at 4 °C in 80 ml of dialysis buffer using Slide-A-Lyzer® dialysis cassettes (Thermo Scientific) with a molecular weight cut-off of 10,000 and a sample volume capacity of 0.5–3 ml. The dialysis buffer was replaced at 3 and 7 h after the start of dialysis. Following dialysis, the dialysis samples were diluted twofold with the addition of kynuramine to yield a kynuramine concentration and inhibitor concentration of 50 µM and 2 × IC50, respectively. The reactions (500 µL) were incubated for 20 min at 37 °C and terminated with NaOH (400 μL, 2 N) and water (1000 µL). The fluorescence of 4-hydroxyquinoline in these samples was measured as described for the IC50 determination above. […] Undialysed mixtures of MAO-B and the test inhibitors were maintained at 4 °C for 24 h and diluted and assayed as above. All reactions were carried out in triplicate and the residual enzyme catalytic rates are expressed as mean ± SD.
Reversibility of MAO inhibition is an important factor to consider when evaluating the inhibition properties of potential inhibitors. Irreversible MAO inhibitors, particularly of the MAO-A isoform, are associated with dangerous adverse effects such as the cheese reaction, which occurs when irreversible MAO-A inhibitors are taken with tyramine-rich food[51]. […] The samples were diluted twofold and the residual MAO-B activity was measured. For reversible inhibition, dialysis is expected to reverse inhibition by the test inhibitors and restore enzyme activity to the level of the negative control. […] A final experiment consisted of incubations containing MAO-B and tested inhibitors which were not dialyzed, but maintained for 24 h.

[5] = biological target: T1, hMAO-B; assay: hMAO-B inhibition, IC50 determination (kynuramine fluorescence); assay type: biochemical
Protocol: The procedure for the measurement of IC50 values for the inhibition of MAO has been reported. The enzyme reactions were prepared to a volume of […] in potassium phosphate buffer at pH 7.4 (100 mM, made isotonic with KCl) and contained kynuramine (50 μM) and the test inhibitors (0.003–100 µM). Stock solutions of the test inhibitors were prepared in DMSO and added to the reactions to yield 4% DMSO. The enzyme reactions were initiated with the addition of recombinant hMAO-A (0.0075 mg protein/mL) or hMAO-B (0.015 mg protein/mL) and incubated for 20 min at 37 °C. At endpoint, the reactions were terminated with 80 µL sodium hydroxide (2N) and the fluorescence of 4-hydroxyquinoline, the oxidation product of kynuramine, was measured (λex = 310; λem = 400 nm)[33]. 4-Hydroxyquinoline was quantified with a calibration curve (0.047–1.56 μM) and the rate of 4-hydroxyquinoline formation was fitted to the one site competition model of the Prism 5 software package (GraphPad). From the resulting sigmoidal plots, the IC50 values were estimated. All enzyme reactions were carried out in triplicate and IC50 values are given as the mean ± standard deviation (SD).

[6] = Metal chelating activity on ferrous ions; settings: ferrozine

In the case of CC(=NNc1nc(-c2cccc([N+](=O)[O-])c2)cs1)c1cccs1 [Compound 4, 1-(4-(3-Nitrophenyl)thiazol-2-yl)-2-(1-(thiophen-2-yl)ethylidene)hydrazine], the IC50 [1] is reported as 1170 ± 10 µM, the IC50 [2] is reported as 1040 ± 10 µM and the EC50 [3] is reported as 530 ± 20 µM. For the same molecule, the “Reversibility of MAO-B inhibition” value ([4]; dialysis 24 h) was “partially reversible”, the “Residual MAO-B activity, undialysed mixtures” value ([4]; inhibitor at 4 × IC50, not dialyzed, maintained 24 h) was 33% and the “Residual MAO-B activity after dialysis” value ([4]; inhibitor at 4 × IC50, preincubated 15 min, dialyzed 24 h, relative to negative control) was 61%. The IC50 [5] was 0.0018 µM, the “Selectivity index (SI) for the MAO-B isoform” value ([5]; ratio (IC50 hMAO-A)/(IC50 hMAO-B)) was 922 and the IC50 [6] was over 5000 µM.
